Results published in patent US12414569B2 (priority 2019, dated 2025).

Settings: Citrus sinensis

SMILES: O=CC=Cc1ccccc1 [Cinnamaldehyde]
- Distance Traveled: 12 cm

SMILES: Cc1nnc(C)s1 [2,5-Dimethyl-1,3,4-thiadiazole]
- Distance Traveled: 14 cm

SMILES: C=CCSSCC=C [Diallyl disulfide]
- Distance Traveled: 24 cm

SMILES: C=CCSSSCC=C [Diallyl Trisulfide]
- Distance Traveled: 26 cm
